Marks after values point to notes of the source that are not given here.
Columns and labels:
Ovariectomized Primates [1] = assay: Biomechanical material properties of beam specimens from femur diaphysis; assay type: in vivo, Macaca fascicularis; details: for E (Young's modulus) / u (toughness) / εa / σa: femur diaphysis beam, mean ± SEM
From the text: (§1) Biomechanical tests were done on lumbar vertebrae L-3 to L-4, the femur neck, humerus midshaft, and on a cortical bone specimen machined from the femur diaphysis (measures defined in Table 2). Conventional static and dynamic histomorphometry were done (measures described in Table 6) on the humerus midshaft, lumbar vertebra L-2, femoral neck, femur midshaft, the radius midshaft and distal radius. Initial statistical analyses compared all groups to vehicle-treated ovariectomized controls. The data is suitable for additional exploratory analyses to examine dose dependency, effects of withdrawal, interactions between outcomes, and changes in time by methods known to those of skill in the art. All assays were conducted and determined by methods known in the art.

Ovariectomized Primates [2] = assay: Biomechanical measures of cortical bone of the humerus midshaft; assay type: in vivo, Macaca fascicularis; details: for Fy / S (stiffness) / t (average cortical thickness): humerus midshaft, mean ± SEM
From the text: as §1

[3] = compared to ovariectomized controls
[4] = PTH1-W: withdrawal after 1 µg/kg for 12 months
[5] = PTH5-W: withdrawal after 5 µg/kg for 12 months

teriparatide [rhPTH(1-34)]
material properties of beam specimens machined from the femoral diaphysis (Ovariectomized Primates [1]; [3]): did not alter
E (Young's modulus) (Ovariectomized Primates [1]; [4]): 16.6 ± 0.6 Gpa
u (toughness) (Ovariectomized Primates [1]; [4]): 5.3 ± 0.4 mJ/m^3
εa (Ovariectomized Primates [1]; [4]): 0.034 ± 0.002
σa (Ovariectomized Primates [1]; [4]): 214 ± 6 Mpa
E (Young's modulus) (Ovariectomized Primates [1]; PTH1: 1 µg/kg for 18 months): 17.1 ± 0.4 Gpa
u (toughness) (Ovariectomized Primates [1]; PTH1: 1 µg/kg for 18 months): 6.1 ± 0.4 mJ/m^3
εa (Ovariectomized Primates [1]; PTH1: 1 µg/kg for 18 months): 0.036 ± 0.002
σa (Ovariectomized Primates [1]; PTH1: 1 µg/kg for 18 months): 222 ± 4 Mpa
E (Young's modulus) (Ovariectomized Primates [1]; [5]): 15.3 ± 0.6^a Gpa
u (toughness) (Ovariectomized Primates [1]; [5]): 6.1 ± 0.4 mJ/m^3
εa (Ovariectomized Primates [1]; [5]): 0.038 ± 0.002
σa (Ovariectomized Primates [1]; [5]): 208 ± 6 Mpa
E (Young's modulus) (Ovariectomized Primates [1]; PTH5: 5 µg/kg for 18 months): 15.4 ± 0.6^a Gpa
u (toughness) (Ovariectomized Primates [1]; PTH5: 5 µg/kg for 18 months): 5.4 ± 0.4 mJ/m^3
εa (Ovariectomized Primates [1]; PTH5: 5 µg/kg for 18 months): 0.034 ± 0.002
σa (Ovariectomized Primates [1]; PTH5: 5 µg/kg for 18 months): 206 ± 6 Mpa
measures in the cortical diaphysis of the humerus midshaft (Ovariectomized Primates [2]; [3]): did not alter
Fy (Ovariectomized Primates [2]; [4]): 689 ± 23 N
S (stiffness) (Ovariectomized Primates [2]; [4]): 573 ± 20 N/mm
t (average cortical thickness) (Ovariectomized Primates [2]; [4]): 1.66 ± 0.04 mm
Fy (Ovariectomized Primates [2]; PTH1: 1 µg/kg for 18 months): 654 ± 23 N
S (stiffness) (Ovariectomized Primates [2]; PTH1: 1 µg/kg for 18 months): 544 ± 23 N/mm
t (average cortical thickness) (Ovariectomized Primates [2]; PTH1: 1 µg/kg for 18 months): 1.68 ± 0.03 mm
Fy (Ovariectomized Primates [2]; [5]): 707 ± 24 N
S (stiffness) (Ovariectomized Primates [2]; [5]): 573 ± 24 N/mm
t (average cortical thickness) (Ovariectomized Primates [2]; [5]): 1.72 ± 0.05 mm
Fy (Ovariectomized Primates [2]; PTH5: 5 µg/kg for 18 months): 680 ± 15^a N
S (stiffness) (Ovariectomized Primates [2]; PTH5: 5 µg/kg for 18 months): 548 ± 18 N/mm
t (average cortical thickness) (Ovariectomized Primates [2]; PTH5: 5 µg/kg for 18 months): 1.80 ± 0.04^a mm

Source: EP1769804B1, “hPTH(1-34) for use in preventing or reducing the incidence or severity of vertebral and / or non vertebral fracture in a male human” (priority 1998, dated 2012)
